Calls of active or inactive are those of the source.
Experiments:
Type in all cases: functional
[1] = biological target: Protein kinase C theta type (Homo sapiens, UniProt Q04759); experiment: Navigating the Kinome. Panel member name: PRKCQ
[2] = biological target: Ribosomal protein S6 kinase alpha-3 (Homo sapiens, UniProt P51812);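 note: measured within a kinome-wide profiling panel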
[3] = biological target: Dual specificity protein kinase CLK2 (Homo sapiens, UniProt P49760)
[4] = biological target: Dual specificity mitogen-activated protein kinase kinase 1 (Homo sapiens, UniProt Q02750); experiment: Navigating the Kinome. Panel member name: MAP2K1
[5] = biological target: Tyrosine-protein kinase JAK2 (Homo sapiens, UniProt O60674);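 note: JAK2 tested as one member of a kinase panel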
[6] = biological target: Serine/threonine-protein kinase TBK1 (Homo sapiens, UniProt Q9UHD2); experiment: Navigating the Kinome. Panel member name: TBK1
[7] = biological target: 5'-AMP-activated protein kinase catalytic subunit alpha-1 (Homo sapiens, UniProt Q13131)
[8] = biological target: ALK tyrosine kinase receptor (Homo sapiens, UniProt Q9UM73);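 note: ALK tested as one member of a kinase panel screen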
[9] = biological target: Tyrosine-protein kinase receptor TYRO3 (Homo sapiens, UniProt Q06418);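 note: TYRO3 value obtained as one member of a kinome-wide profiling panel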
[10] = biological target: Serine/threonine-protein kinase D3 (Homo sapiens, UniProt O94806);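 note: determined within a kinase panel screen, with PRKCN as the panel member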
[11] = biological target: Tyrosine-protein kinase Lck (Homo sapiens, UniProt P06239);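 note: lck was assayed as one member of a kinase panel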
[12] = biological target: Death-associated protein kinase 3 (Homo sapiens, UniProt O43293);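 note: measured as one member of a kinome-wide profiling panel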
Activin receptor type-1 = Activin receptor type-1 (Homo sapiens, UniProt Q04771); experiment: Navigating the Kinome. Panel member name: ACVR1
[13] = biological target: Mitogen-activated protein kinase 8 (Homo sapiens, UniProt P45983);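 note: value comes from one member of a kinome-wide kinase profiling panel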
[14] = biological target: Serine/threonine-protein kinase pim-1 (Homo sapiens, UniProt P11309)
Sequence of Serine/threonine-protein kinase pim-1 (P11309 whole entry): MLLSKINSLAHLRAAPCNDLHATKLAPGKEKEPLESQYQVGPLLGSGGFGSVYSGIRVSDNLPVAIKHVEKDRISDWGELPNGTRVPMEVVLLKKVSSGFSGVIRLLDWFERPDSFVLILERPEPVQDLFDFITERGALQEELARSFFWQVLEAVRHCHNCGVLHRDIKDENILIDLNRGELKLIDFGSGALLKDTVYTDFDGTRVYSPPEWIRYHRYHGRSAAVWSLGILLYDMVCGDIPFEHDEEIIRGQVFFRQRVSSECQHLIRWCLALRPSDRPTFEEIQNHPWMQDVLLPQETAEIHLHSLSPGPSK

Aurora kinase A = Aurora kinase A (Homo sapiens, UniProt O14965);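 note: value from the Navigating the Kinome kinase panel profiling, panel entry STK6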
[15] = biological target: Tyrosine-protein kinase BTK (Homo sapiens, UniProt Q06187)
[16] = biological target: Serine/threonine-protein kinase PAK 4 (Homo sapiens, UniProt O96013);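 note: value obtained within a kinome profiling panel in which PAK4 was one of the panel members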
[17] = biological target: Fibroblast growth factor receptor 1 (Homo sapiens, UniProt P11362)
[18] = biological target: Casein kinase I isoform alpha (Homo sapiens, UniProt P48729)
[19] = biological target: Tyrosine-protein kinase JAK3 (Homo sapiens, UniProt P52333)
[20] = biological target: Mitogen-activated protein kinase 9 (Homo sapiens, UniProt P45984);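 note: value from a kinome panel profiling assay, MAPK9 panel entry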
LIM domain kinase 1 = LIM domain kinase 1 (Homo sapiens, UniProt P53667); experiment: Navigating the Kinome. Panel member name: LIMK1
[21] = biological target: Serine/threonine-protein kinase TAO1 (Homo sapiens, UniProt Q7L7X3)
Sequence of Serine/threonine-protein kinase TAO1 (Q7L7X3 whole entry): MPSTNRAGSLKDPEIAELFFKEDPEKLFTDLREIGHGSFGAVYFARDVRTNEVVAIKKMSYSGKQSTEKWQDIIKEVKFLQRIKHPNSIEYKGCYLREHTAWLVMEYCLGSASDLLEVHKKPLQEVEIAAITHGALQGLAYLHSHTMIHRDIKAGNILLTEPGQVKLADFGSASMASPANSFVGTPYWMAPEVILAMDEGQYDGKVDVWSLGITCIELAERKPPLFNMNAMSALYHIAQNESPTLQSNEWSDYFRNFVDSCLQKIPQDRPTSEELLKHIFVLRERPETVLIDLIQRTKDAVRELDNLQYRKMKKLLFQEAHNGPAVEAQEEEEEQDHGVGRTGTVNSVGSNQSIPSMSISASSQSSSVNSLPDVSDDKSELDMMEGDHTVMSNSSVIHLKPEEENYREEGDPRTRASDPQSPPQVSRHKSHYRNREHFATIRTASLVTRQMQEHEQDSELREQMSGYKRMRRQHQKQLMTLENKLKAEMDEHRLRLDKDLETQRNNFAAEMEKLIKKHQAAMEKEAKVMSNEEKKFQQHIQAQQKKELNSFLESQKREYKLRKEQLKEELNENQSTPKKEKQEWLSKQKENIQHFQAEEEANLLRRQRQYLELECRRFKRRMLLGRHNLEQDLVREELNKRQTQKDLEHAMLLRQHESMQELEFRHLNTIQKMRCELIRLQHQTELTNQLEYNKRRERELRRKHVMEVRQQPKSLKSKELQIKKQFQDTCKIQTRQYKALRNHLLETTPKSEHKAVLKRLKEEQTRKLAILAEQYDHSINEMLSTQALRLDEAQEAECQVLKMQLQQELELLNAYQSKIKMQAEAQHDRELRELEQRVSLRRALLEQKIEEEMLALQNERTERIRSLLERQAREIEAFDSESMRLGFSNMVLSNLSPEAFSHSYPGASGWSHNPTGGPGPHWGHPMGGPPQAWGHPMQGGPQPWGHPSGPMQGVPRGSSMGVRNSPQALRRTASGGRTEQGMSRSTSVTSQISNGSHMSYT

[22] = biological target: High affinity nerve growth factor receptor (Homo sapiens, UniProt P04629);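 note: NTRK1 tested as one member of a kinome-wide profiling panel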
[23] = biological target: Glycogen synthase kinase-3 alpha (Homo sapiens, UniProt P49840);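 note: GSK3A result taken from a broad kinome-wide kinase panel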
[24] = biological target: Mitogen-activated protein kinase kinase kinase kinase 2 (Homo sapiens, UniProt Q12851);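 note: measured as one member of a kinome-wide kinase panel, with MAP4K2 as the panel entry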
Activated CDC42 kinase 1 = Activated CDC42 kinase 1 (Homo sapiens, UniProt Q07912); experiment: Navigating the Kinome. Panel member name: ACK1
[25] = biological target: Platelet-derived growth factor receptor beta (Homo sapiens, UniProt P09619);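 note: value comes from a kinome panel, with PDGFRB tested as one panel member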
[26] = biological target: Receptor-type tyrosine-protein kinase FLT3 (Homo sapiens, UniProt P36888);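 note: FLT3 was tested as one member of a kinome-wide kinase panel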
[27] = biological target: Serine/threonine-protein kinase Chk1 (Homo sapiens, UniProt O14757);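 note: measured as one member of a kinome-wide kinase profiling panel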
[28] = biological target: Tyrosine-protein kinase ABL1 (Homo sapiens, UniProt P00519)
[29] = biological target: Vascular endothelial growth factor receptor 2 (Homo sapiens, UniProt P35968)
[30] = biological target: Insulin-like growth factor 1 receptor (Homo sapiens, UniProt P08069); experiment: Navigating the Kinome. Panel member name: IGF1R
[31] = biological target: Dual specificity tyrosine-phosphorylation-regulated kinase 1B (Homo sapiens, UniProt Q9Y463); experiment: Navigating the Kinome. Panel member name: DYRK1B
[32] = biological target: cAMP-dependent protein kinase catalytic subunit PRKX (Homo sapiens, UniProt P51817)
Focal adhesion kinase 1 = Focal adhesion kinase 1 (Homo sapiens, UniProt Q05397);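 note: measured as one member of a kinome panel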
[33] = biological target: Platelet-derived growth factor receptor alpha (Homo sapiens, UniProt P16234); experiment: Navigating the Kinome. Panel member name: PDGFRA
[34] = biological target: Leucine-rich repeat serine/threonine-protein kinase 2 (Homo sapiens, UniProt Q5S007);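 note: value from a broad kinome-wide panel profiling study in which LRRK2 was one of the kinases tested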
Aurora kinase B = Aurora kinase B (Homo sapiens, UniProt Q96GD4)
[35] = biological target: Rho-associated protein kinase 1 (Homo sapiens, UniProt Q13464);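 note: measured within a broad kinome-wide panel profiling many kinases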
[36] = biological target: Tyrosine-protein kinase Fyn (Homo sapiens, UniProt P06241)
[37] = biological target: Serine/threonine-protein kinase Nek2 (Homo sapiens, UniProt P51955)
[38] = biological target: Cyclin-dependent kinase 8 (Homo sapiens, UniProt P49336); experiment: Navigating the Kinome. Panel member name: CDK8
Sequence of Cyclin-dependent kinase 8 (P49336 whole entry): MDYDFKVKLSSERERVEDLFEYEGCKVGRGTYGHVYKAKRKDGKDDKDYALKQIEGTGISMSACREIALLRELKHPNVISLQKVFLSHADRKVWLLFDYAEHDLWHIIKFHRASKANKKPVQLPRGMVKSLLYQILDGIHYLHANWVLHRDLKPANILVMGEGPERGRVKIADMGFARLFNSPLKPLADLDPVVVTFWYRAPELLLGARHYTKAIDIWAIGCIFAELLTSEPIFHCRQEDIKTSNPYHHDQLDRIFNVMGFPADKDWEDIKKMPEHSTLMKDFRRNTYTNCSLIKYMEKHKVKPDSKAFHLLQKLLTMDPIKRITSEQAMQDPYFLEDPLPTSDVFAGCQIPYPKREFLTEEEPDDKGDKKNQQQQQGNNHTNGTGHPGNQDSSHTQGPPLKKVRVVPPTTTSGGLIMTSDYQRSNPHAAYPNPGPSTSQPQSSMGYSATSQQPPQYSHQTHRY

[39] = biological target: Cyclin-dependent kinase 7 (Homo sapiens, UniProt P50613);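 note: value comes from a kinome-wide kinase profiling panel in which CDK7 is one member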
[40] = biological target: Vascular endothelial growth factor receptor 1 (Homo sapiens, UniProt P17948);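 note: measured within a kinome-wide profiling panel, FLT1 as the panel member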
[41] = biological target: Glycogen synthase kinase-3 beta (Homo sapiens, UniProt P49841);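 note: value comes from a broad kinome profiling panel, with GSK3B as the panel member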
Sequence of Glycogen synthase kinase-3 beta (P49841 whole entry): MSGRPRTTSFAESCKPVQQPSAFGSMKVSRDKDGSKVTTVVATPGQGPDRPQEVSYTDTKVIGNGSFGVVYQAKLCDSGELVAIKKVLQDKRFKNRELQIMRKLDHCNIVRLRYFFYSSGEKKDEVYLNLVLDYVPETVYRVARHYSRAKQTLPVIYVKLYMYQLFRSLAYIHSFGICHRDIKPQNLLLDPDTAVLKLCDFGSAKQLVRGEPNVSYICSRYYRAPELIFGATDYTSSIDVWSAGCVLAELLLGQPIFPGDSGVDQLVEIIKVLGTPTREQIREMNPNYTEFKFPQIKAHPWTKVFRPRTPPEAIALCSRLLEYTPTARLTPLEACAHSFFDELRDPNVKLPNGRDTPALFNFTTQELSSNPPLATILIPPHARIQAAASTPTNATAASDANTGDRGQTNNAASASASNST

[42] = biological target: Cyclin-dependent kinase 9 (Homo sapiens, UniProt P50750);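 note: value from the CDK9 entry of a kinome-spanning kinase panel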
[43] = biological target: BDNF/NT-3 growth factors receptor (Homo sapiens, UniProt Q16620);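 note: NTRK2 measured as one member of a broad kinome-wide kinase profiling panel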
[44] = biological target: cAMP-dependent protein kinase catalytic subunit alpha (Homo sapiens, UniProt P17612)
[45] = biological target: Dual specificity protein kinase CLK4 (Homo sapiens, UniProt Q9HAZ1)
[46] = biological target: Mitogen-activated protein kinase kinase kinase kinase 4 (Homo sapiens, UniProt O95819)
[47] = biological target: Macrophage-stimulating protein receptor (Homo sapiens, UniProt Q04912); experiment: Navigating the Kinome. Panel member name: MST1R
[48] = biological target: Macrophage colony-stimulating factor 1 receptor (Homo sapiens, UniProt P07333);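 note: value comes from the Navigating the Kinome screening panel, CSF1R member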
Sequence of Macrophage colony-stimulating factor 1 receptor (P07333 whole entry): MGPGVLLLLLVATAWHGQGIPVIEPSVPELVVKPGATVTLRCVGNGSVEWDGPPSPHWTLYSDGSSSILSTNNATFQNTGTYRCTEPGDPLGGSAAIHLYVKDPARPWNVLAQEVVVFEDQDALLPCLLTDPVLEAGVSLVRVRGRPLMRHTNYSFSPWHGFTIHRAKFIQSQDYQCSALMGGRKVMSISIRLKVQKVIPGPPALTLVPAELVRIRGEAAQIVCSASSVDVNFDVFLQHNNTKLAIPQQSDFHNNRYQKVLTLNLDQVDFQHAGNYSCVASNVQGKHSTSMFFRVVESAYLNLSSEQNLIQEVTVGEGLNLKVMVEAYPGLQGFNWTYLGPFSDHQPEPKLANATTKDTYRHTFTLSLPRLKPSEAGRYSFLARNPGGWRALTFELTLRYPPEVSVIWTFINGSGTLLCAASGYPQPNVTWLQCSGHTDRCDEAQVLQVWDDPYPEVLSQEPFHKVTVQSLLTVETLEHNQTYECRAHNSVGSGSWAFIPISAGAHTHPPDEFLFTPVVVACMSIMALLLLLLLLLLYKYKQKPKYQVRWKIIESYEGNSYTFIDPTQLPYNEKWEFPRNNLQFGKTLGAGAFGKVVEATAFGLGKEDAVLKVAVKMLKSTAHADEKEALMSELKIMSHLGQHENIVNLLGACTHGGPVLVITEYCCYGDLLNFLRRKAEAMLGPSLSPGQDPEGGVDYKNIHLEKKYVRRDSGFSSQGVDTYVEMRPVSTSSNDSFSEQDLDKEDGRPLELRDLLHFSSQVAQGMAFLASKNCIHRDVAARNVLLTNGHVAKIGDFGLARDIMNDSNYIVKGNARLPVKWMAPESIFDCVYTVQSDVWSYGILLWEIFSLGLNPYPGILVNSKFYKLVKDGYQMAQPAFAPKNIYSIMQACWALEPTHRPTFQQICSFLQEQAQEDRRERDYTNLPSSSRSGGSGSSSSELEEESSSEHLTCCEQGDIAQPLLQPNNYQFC

[49] = biological target: Dual specificity mitogen-activated protein kinase kinase 2 (Homo sapiens, UniProt P36507); experiment: Navigating the Kinome. Panel member name: MAP2K2
[50] = biological target: Dual specificity tyrosine-phosphorylation-regulated kinase 1A (Homo sapiens, UniProt Q13627);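 note: measured against DYRK1A as one member of a broad kinome profiling panel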
[51] = biological target: Inhibitor of nuclear factor kappa-B kinase subunit epsilon (Homo sapiens, UniProt Q14164); experiment: Navigating the Kinome. Panel member name: IKBKE
Sequence of Inhibitor of nuclear factor kappa-B kinase subunit epsilon (Q14164 whole entry): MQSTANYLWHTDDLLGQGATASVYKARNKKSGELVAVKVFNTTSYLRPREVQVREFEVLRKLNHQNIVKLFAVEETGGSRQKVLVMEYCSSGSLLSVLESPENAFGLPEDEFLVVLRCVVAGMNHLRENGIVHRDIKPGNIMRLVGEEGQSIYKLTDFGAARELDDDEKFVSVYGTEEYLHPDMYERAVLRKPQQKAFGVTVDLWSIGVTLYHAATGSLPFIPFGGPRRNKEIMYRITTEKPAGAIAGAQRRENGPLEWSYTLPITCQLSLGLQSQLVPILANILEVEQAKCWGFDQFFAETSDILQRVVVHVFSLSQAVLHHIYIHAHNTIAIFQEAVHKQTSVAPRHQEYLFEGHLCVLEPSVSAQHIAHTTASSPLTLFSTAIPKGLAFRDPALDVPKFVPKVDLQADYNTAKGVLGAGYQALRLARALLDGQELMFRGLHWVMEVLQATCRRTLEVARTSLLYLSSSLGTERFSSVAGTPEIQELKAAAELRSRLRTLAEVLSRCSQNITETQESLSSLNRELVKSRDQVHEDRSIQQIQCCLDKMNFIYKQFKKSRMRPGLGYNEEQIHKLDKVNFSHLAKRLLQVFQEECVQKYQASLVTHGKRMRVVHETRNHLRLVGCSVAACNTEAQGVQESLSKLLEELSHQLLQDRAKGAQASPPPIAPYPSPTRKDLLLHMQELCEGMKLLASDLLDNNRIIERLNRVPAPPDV

[52] = biological target: Calcium/calmodulin-dependent protein kinase type II subunit alpha (Homo sapiens, UniProt Q9UQM7); experiment: Navigating the Kinome. Panel member name: CAMK2A
[53] = biological target: Leukocyte tyrosine kinase receptor (Homo sapiens, UniProt P29376); experiment: Navigating the Kinome. Panel member name: LTK
Sequence of Leukocyte tyrosine kinase receptor (P29376 whole entry): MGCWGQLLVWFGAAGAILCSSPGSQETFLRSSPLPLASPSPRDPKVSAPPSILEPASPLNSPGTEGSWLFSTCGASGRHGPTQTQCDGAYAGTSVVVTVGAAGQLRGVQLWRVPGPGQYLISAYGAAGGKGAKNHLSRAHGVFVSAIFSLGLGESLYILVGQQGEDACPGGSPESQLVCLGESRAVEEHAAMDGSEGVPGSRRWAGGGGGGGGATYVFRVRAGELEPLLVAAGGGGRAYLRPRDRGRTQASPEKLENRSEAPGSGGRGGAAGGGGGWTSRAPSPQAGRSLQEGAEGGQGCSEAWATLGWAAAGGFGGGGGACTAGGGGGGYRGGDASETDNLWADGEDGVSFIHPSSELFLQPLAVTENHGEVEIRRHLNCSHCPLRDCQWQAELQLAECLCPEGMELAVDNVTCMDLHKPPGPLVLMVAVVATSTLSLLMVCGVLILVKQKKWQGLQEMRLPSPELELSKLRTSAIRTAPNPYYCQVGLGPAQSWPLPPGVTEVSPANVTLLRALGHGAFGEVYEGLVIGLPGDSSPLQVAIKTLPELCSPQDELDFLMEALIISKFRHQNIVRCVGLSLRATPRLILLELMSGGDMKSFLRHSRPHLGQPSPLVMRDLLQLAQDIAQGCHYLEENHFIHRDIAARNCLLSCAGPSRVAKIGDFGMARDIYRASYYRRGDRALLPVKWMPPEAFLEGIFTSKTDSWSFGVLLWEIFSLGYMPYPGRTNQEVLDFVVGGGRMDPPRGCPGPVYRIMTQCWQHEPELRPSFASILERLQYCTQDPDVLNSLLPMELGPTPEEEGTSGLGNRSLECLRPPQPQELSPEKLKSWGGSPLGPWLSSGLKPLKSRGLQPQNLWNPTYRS

## CCC(=O)Nc1ccc(C(=O)N2CCNCC2)c(O)c1
[1]
  Ki: 794 nM (active)
[2]
  Ki: 501 nM (active)
[3]
  Ki: > 3980 nM (inactive)
[4]
  Ki: 398 nM (active)
[5]
  Ki: 501 nM (active)
[6]
  Ki: > 3160 nM (inactive)
[7]
  Ki: 398 nM (active)
[8]
  Ki: 631 nM (active)
[9]
  Ki: 100 nM (active)
[10]
  Ki: 2000 nM (active)
[11]
  Ki: 1580 nM (active)
[12]
  Ki: 794 nM (active)
Activin receptor type-1
  Ki: > 3980 nM (inactive)
[13]
  Ki: 631 nM (active)
[14]
  Ki: 79.4 nM (active)
Aurora kinase A
  Ki: 158 nM (active)
[15]
  Ki: 1580 nM (active)
[16]
  Ki: 794 nM (active)
[17]
  Ki: 158 nM (active)
[18]
  Ki: 794 nM (active)
[19]
  Ki: 631 nM (active)
[20]
  Ki: 398 nM (active)
LIM domain kinase 1
  Ki: 501 nM (active)
[21]
  Ki: 2510 nM (active)
[22]
  Ki: 126 nM (active)
[23]
  Ki: 316 nM (active)
[24]
  Ki: 398 nM (active)
Activated CDC42 kinase 1
  Ki: 631 nM (active)
[25]
  Ki: 316 nM (active)
[26]
  Ki: 316 nM (active)
[27]
  Ki: 398 nM (active)
[28]
  Ki: 1000 nM (active)
[29]
  Ki: 1580 nM (active)
[30]
  Ki: 398 nM (active)
[31]
  Ki: 63.1 nM (active)
[32]
  Ki: 631 nM (active)
Focal adhesion kinase 1
  Ki: 3980 nM (active)
[33]
  Ki: 1000 nM (active)
[34]
  Ki: > 2510 nM (inactive)
Aurora kinase B
  Ki: 501 nM (active)
[35]
  Ki: 1000 nM (active)
[36]
  Ki: 794 nM (active)
[37]
  Ki: 501 nM (active)
[38]
  Ki: 251 nM (active)
[39]
  Ki: 631 nM (active)
[40]
  Ki: > 3980 nM (inactive)
[41]
  Ki: 100 nM (active)
[42]
  Ki: 50.1 nM (active)
[43]
  Ki: 794 nM (active)
[44]
  Ki: 100 nM (active)
[45]
  Ki: 39.8 nM (active)
[46]
  Ki: > 5010 nM (inactive)
[47]
  Ki: 631 nM (active)
[48]
  Ki: 251 nM (active)
[49]
  Ki: 200 nM (active)
[50]
  Ki: 126 nM (active)
[51]
  Ki: 2510 nM (active)
[52]
  Ki: 158 nM (active)
[53]
  Ki: 79.4 nM (active)
